# Experimental data published in patent publication US9562035B2, “Benzamide derivative useful as FASN inhibitors for the treatment of cancer” (Janssen Pharmaceutica NV, priority 2013, dated 2017).
# Tests used:
# [1] = system: A2780 ovarian cells; assay: A2780 Ovarian Cell Proliferation Assay in Lipid Reduced Medium, with Palmitate (control); assay type: cell-based; conditions: Homo sapiens, A2780; lipid reduced medium, 25 μM palmitate, 96 h, MTT; read-out: Proliferation A2780 with Palmitate pIC50 (converted)
# Method in brief: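 Read-out was MTT absorbance at 544 nm after 96 h at 37 °C. Cells grown overnight in RPMI1640/10% FCS were moved to 10% lipid-reduced serum with compound plus palmitate (final 25 μM, 0.2% fatty-acid-free BSA, 0.2% DMSO). IC50 came from least-squares curve fitting, expressed as −log(IC50).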
# [2] = system: A2780 ovarian cells; assay: A2780 Ovarian Cell Proliferation Assay in Lipid Reduced Medium, without Palmitate; assay type: cell-based; conditions: Homo sapiens, A2780; lipid reduced medium, without palmitate, 96 h, MTT; read-out: Proliferation A2780 w/o Palmitate pIC50 (converted)
# Method in brief: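 A2780 cells were seeded in 10% FCS medium and switched next day to 10% lipid-reduced serum without palmitate. Compounds at 0.01–30 μM were added with 0.2% DMSO, 0.2% fatty-acid-free BSA and 0.25% ethanol final. After 96 h, MTT absorbance at 544 nm was normalized to plate controls, and IC50/pIC50 came from a 4-parameter logistic fit.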
# [3] = target: T1, hFASN enzyme (full length) (Homo sapiens, UniProt P49327); assay: Fatty Acid Synthase (FASN) Inhibition Scintillation Proximity Assay; assay type: biochemical; conditions: for IC50: mean where tested more than once, ~ = standard error of pIC50 larger than 0.5; for inhibition at 10 µM: read-out: FASN % Effect @1E−05M
# T1 construct: 10 μL hFASN enzyme (full length, 300 ng, purified in house); made in house
# T1 sequence (P49327 whole entry): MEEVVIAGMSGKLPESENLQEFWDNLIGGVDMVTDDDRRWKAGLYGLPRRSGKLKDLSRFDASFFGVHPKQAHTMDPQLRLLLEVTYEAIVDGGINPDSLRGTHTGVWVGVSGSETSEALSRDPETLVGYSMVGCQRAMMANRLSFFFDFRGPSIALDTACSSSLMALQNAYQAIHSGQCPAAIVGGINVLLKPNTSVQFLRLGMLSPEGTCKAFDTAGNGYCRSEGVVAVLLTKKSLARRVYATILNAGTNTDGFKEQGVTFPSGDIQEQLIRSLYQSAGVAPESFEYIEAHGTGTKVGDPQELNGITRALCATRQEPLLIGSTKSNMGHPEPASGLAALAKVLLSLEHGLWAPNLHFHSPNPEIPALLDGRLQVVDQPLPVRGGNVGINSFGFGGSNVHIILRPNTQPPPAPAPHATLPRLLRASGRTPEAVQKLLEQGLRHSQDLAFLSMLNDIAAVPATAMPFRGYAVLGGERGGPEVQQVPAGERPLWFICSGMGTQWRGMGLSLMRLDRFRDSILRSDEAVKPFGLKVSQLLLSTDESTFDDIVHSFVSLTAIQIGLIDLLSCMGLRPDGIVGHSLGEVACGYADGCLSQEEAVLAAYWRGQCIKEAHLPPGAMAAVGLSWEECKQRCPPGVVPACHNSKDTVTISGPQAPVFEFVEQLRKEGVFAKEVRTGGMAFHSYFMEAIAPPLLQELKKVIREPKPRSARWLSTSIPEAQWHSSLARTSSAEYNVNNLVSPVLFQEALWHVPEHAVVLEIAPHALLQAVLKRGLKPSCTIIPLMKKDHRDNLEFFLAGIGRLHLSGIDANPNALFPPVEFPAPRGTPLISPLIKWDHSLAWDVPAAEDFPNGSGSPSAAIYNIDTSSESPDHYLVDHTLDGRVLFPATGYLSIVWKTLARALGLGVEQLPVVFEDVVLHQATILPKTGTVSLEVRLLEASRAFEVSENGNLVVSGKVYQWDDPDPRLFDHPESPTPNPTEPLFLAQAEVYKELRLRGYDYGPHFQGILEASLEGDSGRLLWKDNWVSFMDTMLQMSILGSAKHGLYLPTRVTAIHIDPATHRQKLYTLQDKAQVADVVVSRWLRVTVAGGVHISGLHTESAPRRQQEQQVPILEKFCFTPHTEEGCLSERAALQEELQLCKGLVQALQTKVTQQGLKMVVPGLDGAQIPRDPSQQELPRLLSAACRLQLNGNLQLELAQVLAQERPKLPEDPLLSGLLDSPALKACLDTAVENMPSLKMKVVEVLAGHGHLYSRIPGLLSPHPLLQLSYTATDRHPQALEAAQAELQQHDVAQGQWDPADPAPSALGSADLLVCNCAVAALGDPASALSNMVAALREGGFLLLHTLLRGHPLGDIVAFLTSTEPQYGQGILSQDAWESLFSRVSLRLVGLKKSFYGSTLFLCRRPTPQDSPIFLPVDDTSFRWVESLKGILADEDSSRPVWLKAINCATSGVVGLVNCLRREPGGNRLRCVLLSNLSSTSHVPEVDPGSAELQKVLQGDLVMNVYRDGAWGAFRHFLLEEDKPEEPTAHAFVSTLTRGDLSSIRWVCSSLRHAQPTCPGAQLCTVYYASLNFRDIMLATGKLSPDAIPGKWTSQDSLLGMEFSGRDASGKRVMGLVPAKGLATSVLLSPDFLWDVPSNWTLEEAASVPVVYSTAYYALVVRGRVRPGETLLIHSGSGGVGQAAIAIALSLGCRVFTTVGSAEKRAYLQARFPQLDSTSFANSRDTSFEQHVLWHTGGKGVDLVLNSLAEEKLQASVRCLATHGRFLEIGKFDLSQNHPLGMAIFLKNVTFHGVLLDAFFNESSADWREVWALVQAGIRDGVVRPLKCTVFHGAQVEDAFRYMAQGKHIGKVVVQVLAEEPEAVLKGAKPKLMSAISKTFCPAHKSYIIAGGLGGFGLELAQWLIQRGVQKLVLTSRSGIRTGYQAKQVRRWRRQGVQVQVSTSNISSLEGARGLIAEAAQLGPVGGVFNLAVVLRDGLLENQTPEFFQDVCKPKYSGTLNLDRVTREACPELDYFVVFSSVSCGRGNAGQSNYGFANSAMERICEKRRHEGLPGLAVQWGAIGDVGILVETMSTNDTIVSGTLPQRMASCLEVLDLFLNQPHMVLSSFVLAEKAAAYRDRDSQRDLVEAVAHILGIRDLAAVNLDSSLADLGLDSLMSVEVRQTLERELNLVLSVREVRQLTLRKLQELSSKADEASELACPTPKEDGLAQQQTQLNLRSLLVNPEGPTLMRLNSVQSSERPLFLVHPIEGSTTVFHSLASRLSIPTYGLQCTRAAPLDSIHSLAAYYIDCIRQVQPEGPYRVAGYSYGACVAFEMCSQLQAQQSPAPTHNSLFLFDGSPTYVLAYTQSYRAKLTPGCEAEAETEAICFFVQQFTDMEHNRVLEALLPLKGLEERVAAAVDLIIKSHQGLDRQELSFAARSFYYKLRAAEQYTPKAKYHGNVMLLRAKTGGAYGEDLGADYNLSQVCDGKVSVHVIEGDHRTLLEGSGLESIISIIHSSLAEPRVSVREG
# Method in brief: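 Eight compound concentrations (0.01–30 μM) tested in pH 7.5 phosphate buffer with DTT; human full-length enzyme converted [3H]-acetyl-CoA plus malonyl-CoA, with NADPH, over 60 min at room temperature. Hydrophobic [3H]-palmitate detected by bead proximity scintillation imaging; control-normalised data fitted for IC50/pIC50.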
# [4] = target: T2, FASN Keto-reductase Domain (Homo sapiens, UniProt P49327); assay: Fatty Acid Synthase Keto-Reductase Domain (FASN KR) Inhibition; assay type: biochemical; conditions: mean where tested more than once; read-out: FASN K-R Domain pIC50 (converted)
# T2 construct: 10 μL hFASN enzyme (full length, 300 ng, purified in house) and 360 μM NADPH; made in house
# T2 sequence (P49327 whole entry, the tested form may be a part): as the sequence (P49327 whole entry) above
# Method in brief: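 Keto-reductase activity followed as NADPH consumption (A340 drop between 0 and 20 min, room temperature) using in-house full-length hFASN, 360 μM NADPH and ethyl acetoacetate substrate (180 mM stock), pH 7.5 phosphate buffer.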
IC50 [1],IC50 [2],IC50 [3],inhibition at 10 µM [3],IC50 [4],SMILES
> 10000 nM,~501 nM,251 nM,101%,501 nM,"CCN1CCC(C(=O)Nc2cc(C(=O)N3CCC(c4ccc(-c5cnn(C)c5)cc4)CC3)ccc2C)C1 (stereo not shown) [Compound 185, 1-ethyl-N-(2-methyl-5-(4-(4-(1-methyl-1H-pyrazol-4-yl)phenyl)piperidine-1-carbonyl)phenyl)pyrrolidine-3-carboxamide]"
> 10000 nM,~195 nM,95.5 nM,106%,331 nM,"CCCN1CCC(C(=O)Nc2cc(C(=O)N3CCC(c4ccc(-c5cnn(C)c5)cc4)CC3)ccc2C)C1 (stereo not shown) [Compound 186, N-(2-methyl-5-(4-(4-(1-methyl-1H-pyrazol-4-yl)phenyl)piperidine-1-carbonyl)phenyl)-1-propylpyrrolidine-3-carboxamide]"
> 10000 nM,~282 nM,141 nM,103%,302 nM,"Cc1ccc(C(=O)N2CCC(c3ccc(-c4cnn(C)c4)cc3)CC2)cc1NC(=O)C1CN(C2CCCC2)C1 [Compound 187, 1-cyclopentyl-N-(2-methyl-5-(4-(4-(1-methyl-1H-pyrazol-4-yl)phenyl)piperidine-1-carbonyl)phenyl)azetidine-3-carboxamide]"
> 10000 nM,105 nM,61.7 nM,104%,170 nM,"Cc1ccc(C(=O)N2CCC(c3ccc(-c4cnn(C)c4)cc3)CC2)cc1NC(=O)C1CCN(CC(C)C)C1 (stereo not shown) [Compound 188, 1-isobutyl-N-(2-methyl-5-(4-(4-(1-methyl-1H-pyrazol-4-yl)phenyl)piperidine-1-carbonyl)phenyl)pyrrolidine-3-carboxamide]"
> 10000 nM,263 nM,126 nM,102%,309 nM,"Cc1ccc(C(=O)N2CCC(c3ccc(-c4cnn(C)c4)cc3)CC2)cc1NC(=O)C1CCN(C2CCCC2)C1 (stereo not shown) [Compound 189, 1-cyclopentyl-N-(2-methyl-5-(4-(4-(1-methyl-1H-pyrazol-4-yl)phenyl)piperidine-1-carbonyl)phenyl)pyrrolidine-3-carboxamide]"
> 10000 nM,257 nM,74.1 nM,102%,251 nM,"Cc1ccc(C(=O)N2CCC(c3ccc(-c4cnn(C)c4)cc3)CC2)cc1NC(=O)C1CN(CC(C)(C)C)C1 [Compound 190, N-(2-methyl-5-(4-(4-(1-methyl-1H-pyrazol-4-yl)phenyl)piperidine-1-carbonyl)phenyl)-1-neopentylazetidine-3-carboxamide]"
9330 nM,141 nM,69.2 nM,103%,191 nM,"Cc1ccc(C(=O)N2CCC(c3ccc(-c4cnn(C)c4)cc3)CC2)cc1NC(=O)C1CN(C2CCCCC2)C1 [Compound 191, 1-cyclohexyl-N-(2-methyl-5-(4-(4-(1-methyl-1H-pyrazol-4-yl)phenyl)piperidine-1-carbonyl)phenyl)azetidine-3-carboxamide]"
> 10000 nM,79.4 nM,53.7 nM,105%,170 nM,"Cc1ccc(C(=O)N2CCC(c3ccc(-c4cnn(C)c4)cc3)CC2)cc1NC(=O)C1CCN(CC(C)(C)C)C1 (stereo not shown) [Compound 192, N-(2-methyl-5-(4-(4-(1-methyl-1H-pyrazol-4-yl)phenyl)piperidine-1-carbonyl)phenyl)-1-neopentylpyrrolidine-3-carboxamide]"
7080 nM,148 nM,60.3 nM,109%,178 nM,"Cc1ccc(C(=O)N2CCC(c3ccc(-c4cnn(C)c4)cc3)CC2)cc1NC(=O)C1CN(C2CCC(C)C2)C1 (stereo not shown) [Compound 193, N-(2-methyl-5-(4-(4-(1-methyl-1H-pyrazol-4-yl)phenyl)piperidine-1-carbonyl)phenyl)-1-(3-methylcyclopentyl)azetidine-3-carboxamide]"
~8710 nM,158 nM,117 nM,102%,214 nM,"Cc1ccc(C(=O)N2CCC(c3ccc(-c4cnn(C)c4)cc3)CC2)cc1NC(=O)C1CCN(C2CCC(C)C2)C1 (stereo not shown) [Compound 194, N-(2-methyl-5-(4-(4-(1-methyl-1H-pyrazol-4-yl)phenyl)piperidine-1-carbonyl)phenyl)-1-(3-methylcyclopentyl)pyrrolidine-3-carboxamide]"
9120 nM,110 nM,69.2 nM,101%,191 nM,"Cc1ccc(C(=O)N2CCC(c3ccc(-c4cnn(C)c4)cc3)CC2)cc1NC(=O)C1CCN(CCC(C)C)C1 (stereo not shown) [Compound 195, 1-isopentyl-N-(2-methyl-5-(4-(4-(1-methyl-1H-pyrazol-4-yl)phenyl)piperidine-1-carbonyl)phenyl)pyrrolidine-3-carboxamide]"
~6170 nM,407 nM,162 nM,97%,282 nM,"CCCCC(C)N1CC(C(=O)Nc2cc(C(=O)N3CCC(c4ccc(-c5cnn(C)c5)cc4)CC3)ccc2C)C1 (stereo not shown) [Compound 196, 1-(hexan-2-yl)-N-(2-methyl-5-(4-(4-(1-methyl-1H-pyrazol-4-yl)phenyl)piperidine-1-carbonyl)phenyl)azetidine-3-carboxamide]"
> 10000 nM,288 nM,110 nM,98%,309 nM,"CCCCC(C)N1CCC(C(=O)Nc2cc(C(=O)N3CCC(c4ccc(-c5cnn(C)c5)cc4)CC3)ccc2C)C1 (stereo not shown) [Compound 197, 1-(hexan-2-yl)-N-(2-methyl-5-(4-(4-(1-methyl-1H-pyrazol-4-yl)phenyl)piperidine-1-carbonyl)phenyl)pyrrolidine-3-carboxamide]"
> 10000 nM,603 nM,135 nM,100%,372 nM,"Cc1ccc(C(=O)N2CCC(c3ccc(-c4cnn(C)c4)cc3)CC2)cc1NC(=O)c1nccs1 [Compound 198, N-(2-methyl-5-(4-(4-(1-methyl-1H-pyrazol-4-yl)phenyl)piperidine-1-carbonyl)phenyl)thiazole-2-carboxamide]"
617 nM,562 nM,~676 nM,59%,724 nM,"COc1ccc(-c2ccc(C3CCN(C(=O)c4ccc(C)c(NC(=O)c5ccc(NC(C)C)nc5)c4)CC3)cc2)cc1 [Compound 199, 6-(isopropylamino)-N-(5-(4-(4′-methoxy-[1,1′-biphenyl]-4-yl)piperidine-1-carbonyl)-2-methylphenyl)nicotinamide]"
4570 nM,708 nM,646 nM,86%,646 nM,"COc1ccccc1-c1ccc(C2CCN(C(=O)c3ccc(C)c(NC(=O)c4ccc(NC(C)C)nc4)c3)CC2)cc1 [Compound 200, 6-(isopropylamino)-N-(5-(4-(2′-methoxy-[1,1′-biphenyl]-4-yl)piperidine-1-carbonyl)-2-methylphenyl)nicotinamide]"
933 nM,513 nM,214 nM,86%,380 nM,"COc1cccc(-c2ccc(C3CCN(C(=O)c4ccc(C)c(NC(=O)c5ccc(NC(C)C)nc5)c4)CC3)cc2)c1 [Compound 201, 6-(isopropylamino)-N-(5-(4-(3′-methoxy-[1,1′-biphenyl]-4-yl)piperidine-1-carbonyl)-2-methylphenyl)nicotinamide]"
> 10000 nM,58.9 nM,52.5 nM,113%,151 nM,"COc1ccc(C(=O)N2CC(c3ccc(-c4cnn(C)c4)cc3)C2)cc1NC(=O)c1ccc(NC(C)C)nc1 [Compound 202, 6-(isopropylamino)-N-(2-methoxy-5-(3-(4-(1-methyl-1H-pyrazol-4-yl)phenyl)azetidine-1-carbonyl)phenyl)nicotinamide]"
> 10000 nM,372 nM,282 nM,97%,977 nM,"Cc1ccc(C(=O)N2CCC(c3ccc(-c4cnn(C)c4)cc3)C2)cc1NC(=O)c1ccc(Cl)nc1 (stereo not shown) [Compound 203, 6-chloro-N-(2-methyl-5-(3-(4-(1-methyl-1H-pyrazol-4-yl)phenyl)pyrrolidine-1-carbonyl)phenyl)nicotinamide]"
> 10000 nM,107 nM,129 nM,107%,398 nM,"Cc1ccc(C(=O)N2CCC(c3ccc(-c4cnn(C)c4)cc3)C2)cc1NC(=O)c1ccc(N2CCOCC2)nc1 (stereo not shown) [Compound 204, N-(2-methyl-5-(3-(4-(1-methyl-1H-pyrazol-4-yl)phenyl)pyrrolidine-1-carbonyl)phenyl)-6-morpholinonicotinamide]"
